Results taken from US10167262B2, “Herbicidal substituted 3-arylpyrazoles” (FMC CORPORATION, priority 2014, dated 2019).

Tests used:
Assay in all cases: Test C postemergence greenhouse test, plant response rating 0-100
Type in all cases: in vivo
[1] = tested on: bermudagrass (Cynodon dactylon); details: for Plant response rating, Bermudagrass: scale 0 to 100
Method in brief: (§1)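 Visual rating vs. controls, 0 (no effect) to 100 (complete control), 13–15 d after postemergence treatment. Potted plants, 1- to 4-leaf stage (2–18 cm), greenhouse-held.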

[2] = tested on: canarygrass (Phalaris minor); details: for Plant response rating, Canarygrass: scale 0 to 100
Method in brief: as §1

[3] = tested on: cocklebur (common cocklebur, Xanthium strumarium); details: for Plant response rating, Cocklebur: scale 0 to 100
Method in brief: as §1

[4] = tested on: deadnettle (henbit deadnettle, Lamium amplexicaule); details: for Plant response rating, Deadnettle: scale 0 to 100
Method in brief: as §1

[5] = tested on: goosegrass (Eleusine indica); details: for Plant response rating, Goosegrass: scale 0 to 100
Method in brief: as §1

[6] = tested on: green foxtail (Setaria viridis); details: for Plant response rating, Foxtail, Green: scale 0 to 100
Method in brief: as §1

[7] = tested on: surinam grass (Brachiaria decumbens); details: for Plant response rating, Surinam Grass: scale 0 to 100
Method in brief: as §1

[8] = tested on: windgrass (Apera spica-venti); details: for Plant response rating, Windgrass: scale 0 to 100
Method in brief: as §1

[9] = tested on: winter barley (Hordeum vulgare); details: for Plant response rating, Barley: scale 0 to 100
Method in brief: as §1

[10] = tested on: woolly cupgrass (Eriochloa villosa); details: for Plant response rating, Cupgrass, Woolly: scale 0 to 100
Method in brief: as §1

SMILES | Plant response rating (0 to 100), Bermudagrass ([1]; 62 g ai/ha) | Plant response rating, Bermudagrass ([1]; 250 g ai/ha) | Plant response rating (0 to 100), Canarygrass ([2]; 62 g ai/ha) | Plant response rating (0 to 100), Canarygrass ([2]; 125 g ai/ha) | Plant response rating, Canarygrass ([2]; 250 g ai/ha) | Plant response rating (0 to 100), Deadnettle ([4]; 62 g ai/ha) | Plant response rating (0 to 100), Deadnettle ([4]; 125 g ai/ha) | Plant response rating, Deadnettle ([4]; 250 g ai/ha) | Plant response rating (0 to 100), Goosegrass ([5]; 62 g ai/ha) | Plant response rating (0 to 100), Goosegrass ([5]; 125 g ai/ha) | Plant response rating, Goosegrass ([5]; 250 g ai/ha) | Plant response rating (0 to 100), Foxtail, Green ([6]; 62 g ai/ha) | Plant response rating (0 to 100), Foxtail, Green ([6]; 125 g ai/ha) | Plant response rating, Foxtail, Green ([6]; 250 g ai/ha) | Plant response rating (0 to 100), Surinam Grass ([7]; 62 g ai/ha) | Plant response rating (0 to 100), Surinam Grass ([7]; 125 g ai/ha) | Plant response rating, Surinam Grass ([7]; 250 g ai/ha) | Plant response rating (0 to 100), Windgrass ([8]; 62 g ai/ha) | Plant response rating (0 to 100), Windgrass ([8]; 125 g ai/ha) | Plant response rating, Windgrass ([8]; 250 g ai/ha) | further results
ON=C(c1ccccc1)c1c[nH]nc1-c1cc(Cl)cc(Cl)c1 [Compound 50] | 0 | 0 | 0 | 0 | 0 | 0 | 0 | 40 | 0 | 0 | 0 | 0 | 0 | 0 | 0 | 0 | 0 | 0 | 0 | 0 | Plant response rating (0 to 100), Bermudagrass ([1]; 31 g ai/ha): 0; Plant response rating (0 to 100), Bermudagrass ([1]; 125 g ai/ha): 0; Plant response rating (0 to 100), Canarygrass ([2]; 31 g ai/ha): 0; Plant response rating (0 to 100), Cocklebur ([3]; 31 g ai/ha): 5; Plant response rating (0 to 100), Cocklebur ([3]; 62 g ai/ha): 15; Plant response rating (0 to 100), Cocklebur ([3]; 125 g ai/ha): 55; Plant response rating, Cocklebur ([3]; 250 g ai/ha): 90; Plant response rating (0 to 100), Deadnettle ([4]; 31 g ai/ha): 0; Plant response rating (0 to 100), Goosegrass ([5]; 31 g ai/ha): 0; Plant response rating (0 to 100), Foxtail, Green ([6]; 31 g ai/ha): 0; Plant response rating (0 to 100), Barley ([9]; 31 g ai/ha): 0; Plant response rating (0 to 100), Barley ([9]; 62 g ai/ha): 0; Plant response rating (0 to 100), Barley ([9]; 125 g ai/ha): 0; Plant response rating, Barley ([9]; 250 g ai/ha): 0; Plant response rating (0 to 100), Cupgrass, Woolly ([10]; 31 g ai/ha): 0; Plant response rating (0 to 100), Cupgrass, Woolly ([10]; 62 g ai/ha): 0; Plant response rating (0 to 100), Cupgrass, Woolly ([10]; 125 g ai/ha): 0; Plant response rating, Cupgrass, Woolly ([10]; 250 g ai/ha): 0
Cn1cc(C(=O)c2ccccc2)c(-c2cc(Br)cc(Br)c2)n1 [Compound 53] | 5 | 5 | 0 | 0 | 0 | 0 | 0 | 0 | 5 | 5 | 5 | 0 | 0 | 0 | 0 | 0 | 0 | 0 | 0 | 0 | Plant response rating (0 to 100), Bermudagrass ([1]; 125 g ai/ha): 5; Plant response rating, Bermudagrass ([1]; 500 g ai/ha): 5; Plant response rating, Canarygrass ([2]; 500 g ai/ha): 0; Plant response rating (0 to 100), Cocklebur ([3]; 62 g ai/ha): 5; Plant response rating (0 to 100), Cocklebur ([3]; 125 g ai/ha): 10; Plant response rating, Cocklebur ([3]; 250 g ai/ha): 10; Plant response rating, Cocklebur ([3]; 500 g ai/ha): 15; Plant response rating, Deadnettle ([4]; 500 g ai/ha): 0; Plant response rating, Goosegrass ([5]; 500 g ai/ha): 5; Plant response rating, Foxtail, Green ([6]; 500 g ai/ha): 0; Plant response rating, Surinam Grass ([7]; 500 g ai/ha): 0; Plant response rating, Windgrass ([8]; 500 g ai/ha): 0; Plant response rating (0 to 100), Barley ([9]; 62 g ai/ha): 0; Plant response rating (0 to 100), Barley ([9]; 125 g ai/ha): 0; Plant response rating, Barley ([9]; 250 g ai/ha): 0; Plant response rating, Barley ([9]; 500 g ai/ha): 0; Plant response rating (0 to 100), Cupgrass, Woolly ([10]; 62 g ai/ha): 5; Plant response rating (0 to 100), Cupgrass, Woolly ([10]; 125 g ai/ha): 5; Plant response rating, Cupgrass, Woolly ([10]; 250 g ai/ha): 5; Plant response rating, Cupgrass, Woolly ([10]; 500 g ai/ha): 5
Clc1cc(Cl)cc(-c2n[nH]cc2C(=NN2CCCC2)c2ccccc2)c1 [Compound 30, N-[[3-(3,5-dichlorophenyl)-1H-pyrazol-4-yl]phenylmethylene]-1-pyrrolidinamine] | 0 | 0 | 0 | 0 | 0 | 0 | 0 | 0 | 0 | 0 | 0 | 0 | 0 | 0 | 0 | 0 | 0 | 0 | 0 | 0 | Plant response rating (0 to 100), Bermudagrass ([1]; 31 g ai/ha): 0; Plant response rating, Bermudagrass ([1]; 125 g ai/ha): 0; Plant response rating (0 to 100), Canarygrass ([2]; 31 g ai/ha): 0; Plant response rating (0 to 100), Cocklebur ([3]; 31 g ai/ha): 10; Plant response rating (0 to 100), Deadnettle ([4]; 31 g ai/ha): 0; Plant response rating (0 to 100), Goosegrass ([5]; 31 g ai/ha): 0; Plant response rating (0 to 100), Foxtail, Green ([6]; 31 g ai/ha): 0; Plant response rating (0 to 100), Barley ([9]; 31 g ai/ha): 0; Plant response rating (0 to 100), Barley ([9]; 62 g ai/ha): 0; Plant response rating, Barley ([9]; 125 g ai/ha): 0; Plant response rating, Barley ([9]; 250 g ai/ha): 0; Plant response rating (0 to 100), Cupgrass, Woolly ([10]; 31 g ai/ha): 0; Plant response rating (0 to 100), Cupgrass, Woolly ([10]; 62 g ai/ha): 0; Plant response rating (0 to 100), Cupgrass, Woolly ([10]; 125 g ai/ha): 0; Plant response rating, Cupgrass, Woolly ([10]; 250 g ai/ha): 0
Fc1ccccc1NN=C(c1ccccc1)c1c[nH]nc1-c1cc(Cl)cc(Cl)c1 [Compound 57] | 0 | 5 | 0 | 0 | 0 | 0 | 0 | 0 | 0 | 0 | 0 | 0 | 0 | 0 | 0 | 0 | 0 | 0 | 0 | 0 | Plant response rating (0 to 100), Bermudagrass ([1]; 31 g ai/ha): 0; Plant response rating (0 to 100), Bermudagrass ([1]; 125 g ai/ha): 0; Plant response rating (0 to 100), Canarygrass ([2]; 31 g ai/ha): 0; Plant response rating (0 to 100), Cocklebur ([3]; 31 g ai/ha): 10; Plant response rating (0 to 100), Cocklebur ([3]; 62 g ai/ha): 70; Plant response rating (0 to 100), Cocklebur ([3]; 125 g ai/ha): 70; Plant response rating, Cocklebur ([3]; 250 g ai/ha): 70; Plant response rating (0 to 100), Deadnettle ([4]; 31 g ai/ha): 0; Plant response rating (0 to 100), Goosegrass ([5]; 31 g ai/ha): 0; Plant response rating (0 to 100), Foxtail, Green ([6]; 31 g ai/ha): 0; Plant response rating (0 to 100), Barley ([9]; 31 g ai/ha): 0; Plant response rating (0 to 100), Barley ([9]; 62 g ai/ha): 0; Plant response rating (0 to 100), Barley ([9]; 125 g ai/ha): 0; Plant response rating, Barley ([9]; 250 g ai/ha): 0; Plant response rating (0 to 100), Cupgrass, Woolly ([10]; 31 g ai/ha): 0; Plant response rating (0 to 100), Cupgrass, Woolly ([10]; 62 g ai/ha): 0; Plant response rating (0 to 100), Cupgrass, Woolly ([10]; 125 g ai/ha): 5; Plant response rating, Cupgrass, Woolly ([10]; 250 g ai/ha): 5
